Tests used:
[1] = Blood urea (QuantiChrom Urea Assay Kit) as renal toxicity of cisplatinum; details: 0.04 mg/kg s.c., Day 4 post-treatment, n=3
Text: Urea was detected in mouse blood serum at Day 4 post-treatment using a QuantiChrom Urea Assay Kit (BioAssay Systems).

mice [2] = assay: Acute toxicity in mice; type: in vivo, mouse; details: s.c. 0.5, 1, 2, 4 and 8 mg/kg, several days after administration
Procedure: The lethal dose of Salmonella flagellin is between 1 mg/kg (systemic inflammation) and 10 mg/kg (100% lethality). We subcutaneously administered increasing doses of AA′ to mice (4 mice per dose group) at 0.5, 1, 2, 4 and 8 mg/kg. Due to the lower (˜60%) molecular weight, 8 mg/kg of AA′ correspond to a molar-equivalent dose of 13.3 mg/kg of flagellin. […] The reduced toxicity may be sue to the absence of the central pro-inflammatory domain in the AA′ fragment.

[3] = test system: NIH3T3-derived sarcoma and B16 melanoma tumors; assay: Tumor sensitivity to radiation treatment in syngeneic mouse tumor models; type: in vivo
Procedure: Left Panel: NIH3T3-derived sarcoma cells were injected s.c. in NIH-Swiss mice. When tumors reached 7-10 mm in diameter, mice received three 4.3 Gy doses of total body irradiation, with or without pretreatment with AA′. […] U/t: untreated; AA′: AA′ with no irradiation; 3×4Gy: irradiation only; 3×4Gy+AA′: AA′ and irradiation. (The shape of curves reflects slow growth of tumors that is a characteristic of this model). […] Right Panel: The experiment was done in the same way with another syngeneic mouse tumor model: B16 melanoma (C57BL6 background). Treatment was applied when tumors reached 4-5 mm in diameter and involved three subsequent 4 Gy doses of total body gamma radiation applied with or without pretreatment with AA′ (30 min. before irradiation, 5 μg/mouse).
The ultimate test of a potential radioprotective agent in cancer treatment is tumor selectivity, its ability to protect normal tissues while providing no or little protection to the tumor. We injected 10 NIH-Swiss mice subcutaneously, in both flanks (20 tumors total), with 2×10^6 cells of syngeneic sarcoma cell line model (NIH3T3-derived and spontaneously transformed sarcoma with p53 inactivated by dominant negative inhibitor GSE56). When tumors reached the size of 5-7 mm in diameter (day 5), the mice were injected subcutaneously with 0.2 mg/kg of AA′ or saline vehicle and irradiated 1 hours later with […] of total-body y-irradiation (3×4.3 Gy=12.9 Gy total dose). Injections and irradiations were done at days 5, 6 and 7.

colonic crypts = assay: BrdU incorporation in colonic crypts; type: in vivo, mouse; details: BrdU injected 1 hour after CBLB502 i.p.
Procedure: The colon is much less radiosensitive than small intestine. To further examine the relationship between reduced proliferation in the small intestine and radioprotection, we determined the effect of CBLB502 on BrdU incorporation in the colon. CBLB502 or PBS was injected i.p. in mice, BrdU was injected 1 hour later and samples of […] were obtained after additional 1.5 hours (FIG. 34).

[4] = test system: MeI-7, MeI-29, HCT116, HT1080, NKE and MAEC cells; assay: Growth inhibition assay after gamma-irradiation in multiple cell lines; type: cell-based; details: 2 μg/ml, irradiated (10, 15 Gy) or not, 48 hours
Procedure: Based on the results using A549 cells, several additional tumor cell lines (human melanoma MeI-7 and MeI-29, colon cancer HCT116, […] HT1080), immortalized kidney epithelial cells (NKE) and normal mouse aortal endothelial cells (MAEC)) were tested in growth inhibition assay after 10 and 15 Gy of gamma-irradiation, as compared with intact control, with or without pretreatment with CBLB502. Cells were seeded in 96-well plates night before the treatments. CBLB502 (2 μg/ml) was added to the wells 4 hrs, 1 hr or 10 min before irradiation (all points were done in quadruplicate). 48 hours later, methylene blue staining was performed to determine the relative amount of the viable cells in the wells. The percent of growth inhibition was calculated from the OD650 in control non-irradiated wells, taken as 0% inhibition.

[5] = test system: NIH Swiss mice treated with cisplatinum
[6] = test system: vascular endothelial cells of villi; assay: TUNEL assay of apoptosis in intestinal tissue after irradiation; type: in vivo, mouse; details: 5 hours post irradiation, pretreated mice
Text: In addition to purely histological observation of cell death and survival, we performed more specialized tests of apoptotic cell death in intestinal tissue using a TUNEL assay, which detects apoptosis-associated DNA fragmentation. These experiments allowed us to define with a high degree of probability cellular populations that are depleted by radiation and rescued by flagellin fragment treatment. The earliest radiation-induced alterations detectable in the small intestine after treatment with IR is apoptosis occurring in vascular endothelial cells of villi, which is seen as early as 5 hours post treatment (FIG. 17B). […] Effective protection of endothelial cells of the small intestine by the flagellin fragment may be due to expression of TLR5 in these cells.

[7] = Cisplatinum-induced weight loss in FVB mice; type: in vivo, mouse; details: CBLB502 0.04 mg/kg s.c. 30 min prior to cisplatinum 10 mg/kg i.p., n=3
[8] = Pharmacokinetics: plasma levels by sandwich ELISA; type: in vivo, mouse; details: ICR mice
Procedure: Pharmacokinetic parameters (effective concentration and the duration of drug the presence in the organism) may be important for route, dose and time of drug administration. The pharmacokinetics of CBLB502 (AA′) were thus tested for four common routes of injection: intravenous (i.v.), subcutaneous (s.c.), intraperitoneal (i.p.) or intramuscular (i.m.). A radioprotective dose of CBLB502 (AA′), 0.2 mg/kg, was injected in 12-15 week old ICR mice and plasma samples were collected at the specified times after injection (at least 3 mice/point). The levels of CBLB502 in plasma were measured by sandwich ELISA using known concentrations of CBLB502 spiked in the control ICR plasma for calibration.

mice [9] = details: known from literature; cited from earlier work
[10] = CBLB502 0.04 mg/kg s.c. 30 min before cisplatinum 20 mg/kg i.p.

## AA′: flagellin fragment (1-177)-Linker-(402-505), SEQ ID NO: 8
[1]
  mean OD 490 (blood urea), CLBL502 alone: less than 0.50
Mice [2]
  detrimental effects (mortality, morbidity, systemic inflammation): no visible detrimental effects
[3]; 3×4.3 Gy with AA′, irradiated-only mice all died by day 18
  mice cured and surviving radiotherapy plus AA′: 100%
[3]; AA′ without irradiation
  tumor growth in unirradiated mice: decrease in the growth rate of tumors
[3]; s.c. 0.2 mg/kg 1 hour before each of 3 irradiations, sarcoma in NIH-Swiss mice
  radiation-induced shrinkage of tumors: enhanced
[3]; sarcoma and B16 melanoma
  effect on radiosensitivity of tumors: no effect
Colonic crypts
  BrdU incorporation in colon: no effect
[4]
  effect on tumor cell growth: no or only a slight inhibitory effect
[5]; CBLB502 0.04 mg/kg 30 min prior, n=11
  mean weight loss on any given day, cisplatinum 10 mg/kg with CBLB502: ≤ 15%
[5]; CBLB502 0.04 mg/kg s.c. 30 min before cisplatinum 10 mg/kg i.p.
  weight response, cisplatinum 10 mg/kg with CBLB502: not losing weight
[5]; [10]
  maximum weight loss, cisplatinum 20 mg/kg with CBLB502: ≤ 20%
  survival of animals, cisplatinum 20 mg/kg with CBLB502: 100%
[5]; FIG. 39D
  behavior, cisplatinum with single injection of CBLB502: active animals
[5]; FIG. 39 experiment
  deaths, cisplatinum 10 mg/kg with CBLB502: No deaths
[5]; death at Day 13, remaining mice survived to at least Day 30
  mice that died, cisplatinum 10 mg/kg with CBLB502: one mouse out of eleven
[6]
  apoptosis in vascular endothelial cells of villi: almost completely blocked
[7]
  mean weight loss compared to cisplatinum alone, FVB mice: lower mean weight loss
[8]; 0.2 mg/kg intramuscular injection
  time with significant (>5 ng/ml) levels in mouse plasma: > 3 h
[8]; 0.2 mg/kg intravenous injection
  disappearance from the bloodstream: more rapid disappearance
[8]; 0.2 mg/kg, intramuscular or intraperitoneal injection
  levels and persistence in plasma by route: highest levels and longest persistence

## flagellin: Salmonella dublin FliC flagellin, 505 amino acids, SEQ ID NO: 1; recombinant full-length protein
Mice [9]
  highest tolerable dose: 300 μg/mouse
